Measured values reported in ChEMBL document CHEMBL4402557, “Nidufexor (LMB763), a Novel FXR Modulator for the Treatment of Nonalcoholic Steatohepatitis” (J Med Chem, 2020).
The source made the active and inactive calls. The rule behind the calls is not given here.

What was measured:
[1] = target: T1, Peroxisome proliferator-activated receptor gamma (Homo sapiens, UniProt P37231); test: Agonist activity at PPARgamma (unknown origin) incubated for 2 hrs by TR-FRET assay
T1 sequence (P37231 whole entry): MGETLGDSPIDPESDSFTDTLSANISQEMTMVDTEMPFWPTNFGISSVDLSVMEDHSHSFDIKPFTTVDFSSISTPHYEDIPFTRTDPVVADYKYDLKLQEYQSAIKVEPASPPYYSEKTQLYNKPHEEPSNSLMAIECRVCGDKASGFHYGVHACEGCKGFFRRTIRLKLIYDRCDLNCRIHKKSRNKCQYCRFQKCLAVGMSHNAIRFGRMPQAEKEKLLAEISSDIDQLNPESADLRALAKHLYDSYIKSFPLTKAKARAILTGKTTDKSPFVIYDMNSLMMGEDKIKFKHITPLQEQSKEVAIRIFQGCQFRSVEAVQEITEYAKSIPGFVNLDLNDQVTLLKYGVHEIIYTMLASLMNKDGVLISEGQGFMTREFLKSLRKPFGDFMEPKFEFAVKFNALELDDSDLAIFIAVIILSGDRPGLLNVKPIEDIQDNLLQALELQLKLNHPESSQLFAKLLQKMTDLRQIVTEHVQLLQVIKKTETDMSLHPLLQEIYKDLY

[2] = Oral bioavailability in Wistar rat at 10 mg/kg in presence of TRIS salt; format: ADME, organism-based; details: in vivo
[3] = Volume of distribution at steady state in dog at 0.5 mg/kg, iv; format: ADME, organism-based, Canis lupus familiaris; details: in vivo, read-out: Vdss
Mus musculus = species: Mus musculus; test: Anti Steato-hepatitic activity in C57BL/6J mouse STAM model assessed as change in Cyp8b1 gene level in liver; format: functional, organism-based
[4] = Oral bioavailability in Wistar rat at 30 mg/kg; format: ADME, organism-based; details: in vivo
[5] = Cmax in Wistar rat at 300 mg/kg, po; format: ADME, organism-based; set-up: dose 300 mg/kg, route oral; details: in vivo
[6] = Oral bioavailability in mouse at 10 mg/kg; format: ADME, organism-based; details: in vivo
Rattus norvegicus = test: In-vivo agonist activity at FXR in orally dosed Han Wistar rat assessed as upregulation of SHP mRNA level in ileum administered via oral gavage once daily for 14 days measured post last dose by qRT-PCR analysis; format: functional, organism-based
Androgen receptor = target: T2, Androgen receptor (Homo sapiens, UniProt P10275); test: Agonist activity at androgen receptor (unknown origin) incubated for 2 hrs by TR-FRET assay
T2 sequence (P10275 whole entry): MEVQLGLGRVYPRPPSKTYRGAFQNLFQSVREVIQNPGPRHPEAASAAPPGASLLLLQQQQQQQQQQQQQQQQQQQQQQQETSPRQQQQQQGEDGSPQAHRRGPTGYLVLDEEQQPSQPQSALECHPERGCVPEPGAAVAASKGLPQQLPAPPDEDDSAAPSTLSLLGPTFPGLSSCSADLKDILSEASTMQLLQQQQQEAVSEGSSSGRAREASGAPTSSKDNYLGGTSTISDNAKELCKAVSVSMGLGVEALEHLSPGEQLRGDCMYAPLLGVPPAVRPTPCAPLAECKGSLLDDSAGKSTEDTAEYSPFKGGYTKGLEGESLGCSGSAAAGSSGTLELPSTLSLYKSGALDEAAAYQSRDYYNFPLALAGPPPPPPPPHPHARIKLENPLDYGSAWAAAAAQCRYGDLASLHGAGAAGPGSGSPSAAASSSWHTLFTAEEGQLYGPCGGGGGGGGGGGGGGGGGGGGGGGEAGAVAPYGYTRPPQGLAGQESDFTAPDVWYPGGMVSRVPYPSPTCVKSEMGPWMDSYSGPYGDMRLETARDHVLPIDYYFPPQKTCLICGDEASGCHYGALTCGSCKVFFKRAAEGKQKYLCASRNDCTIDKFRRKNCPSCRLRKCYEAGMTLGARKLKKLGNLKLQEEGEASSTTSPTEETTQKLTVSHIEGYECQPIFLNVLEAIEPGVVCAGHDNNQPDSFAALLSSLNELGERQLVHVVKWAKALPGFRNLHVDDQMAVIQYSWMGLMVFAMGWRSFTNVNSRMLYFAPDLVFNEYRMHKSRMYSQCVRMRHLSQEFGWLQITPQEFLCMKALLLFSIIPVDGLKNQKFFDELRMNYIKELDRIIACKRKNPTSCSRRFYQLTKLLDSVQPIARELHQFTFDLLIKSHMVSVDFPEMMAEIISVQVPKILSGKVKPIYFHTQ

Bile acid receptor = target: T3, Bile acid receptor (Homo sapiens, UniProt Q96RI1); test: Agonist activity at FXR transfected in human HEK293T cells o-expressing pGL3/hBSEP/luc incubated for 24 hrs by Steady-Glo reagent based luciferase reporter gene assay; format: cell-based
T3 sequence (Q96RI1 whole entry): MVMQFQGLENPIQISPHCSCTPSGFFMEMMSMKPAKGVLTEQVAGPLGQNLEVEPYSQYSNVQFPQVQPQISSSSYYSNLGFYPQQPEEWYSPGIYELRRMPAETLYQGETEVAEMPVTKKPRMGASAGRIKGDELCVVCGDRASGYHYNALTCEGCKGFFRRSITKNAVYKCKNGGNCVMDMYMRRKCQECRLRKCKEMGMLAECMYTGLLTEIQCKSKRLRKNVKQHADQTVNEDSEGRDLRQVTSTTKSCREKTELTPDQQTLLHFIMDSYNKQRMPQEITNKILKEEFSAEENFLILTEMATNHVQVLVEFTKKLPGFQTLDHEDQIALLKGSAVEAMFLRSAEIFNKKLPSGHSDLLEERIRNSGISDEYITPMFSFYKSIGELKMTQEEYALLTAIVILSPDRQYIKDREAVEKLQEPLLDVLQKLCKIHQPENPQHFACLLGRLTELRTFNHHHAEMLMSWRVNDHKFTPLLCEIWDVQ

- EC50 [1]: > 30 µM
- bioavailability [2]: 52%
- Vd [3]: 1.1 L/kg
- bioavailability [4]: 52%
- Cmax [5]: 141 µM
- bioavailability [6]: 115%
- EC50 (Androgen receptor): > 30 µM
SMILES: Cn1nc(C(=O)N(Cc2ccccc2)Cc2ccc(C(=O)O)cc2)c2c1-c1cc(Cl)ccc1OC2 [NIDUFEXOR]
- Activity (Mus musculus): Active
- Activity (Rattus norvegicus): Dose-dependent effect
- EC50 (Bile acid receptor): 32 nM
